Source: article PMC5913239, “Targeting GLP-1 receptor trafficking to improve agonist efficacy” (Nature Communications, 2018)

Tests used:
GLP-1R [1] = target: T1, GLP-1R (Homo sapiens, UniProt P43220); experiment: cAMP accumulation (HTRF) in PathHunter CHO-GLP-1R cells; assay type: cell-based; design: host or cells: PathHunter CHO-K1 reporter cells (purchased cell lines); conditions: ± 3 μM BETP, n=3
Procedure: Cyclic AMP accumulation was determined by HTRF (cAMP Dynamic 2, Cisbio). CHO-SNAP-GLP-1R were stimulated at 37 °C in serum-free DMEM. For dose responses, a full GLP-1 curve was included to establish the assay Emax with curve fitting to a four-parameter fit.

SNAP-GLP-1R [2] = target: T2, SNAP-GLP-1R (Homo sapiens, UniProt P43220); experiment: Competitive association kinetics (TR-FRET, competition with exendin-4-FITC), CHO-SNAP-GLP-1R cells; assay type: binding
T2 sequence (P43220 24-463): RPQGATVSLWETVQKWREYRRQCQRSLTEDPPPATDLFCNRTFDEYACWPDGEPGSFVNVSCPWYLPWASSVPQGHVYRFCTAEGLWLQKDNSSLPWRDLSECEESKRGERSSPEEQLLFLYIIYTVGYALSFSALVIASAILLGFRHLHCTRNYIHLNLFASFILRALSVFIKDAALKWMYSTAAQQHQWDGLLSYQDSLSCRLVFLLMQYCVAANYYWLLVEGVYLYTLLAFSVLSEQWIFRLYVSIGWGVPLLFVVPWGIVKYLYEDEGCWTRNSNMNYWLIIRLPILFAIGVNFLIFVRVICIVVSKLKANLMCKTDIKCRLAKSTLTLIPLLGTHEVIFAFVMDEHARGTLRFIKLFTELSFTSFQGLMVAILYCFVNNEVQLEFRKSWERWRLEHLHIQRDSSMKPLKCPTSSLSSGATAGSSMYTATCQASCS
Procedure: Association and dissociation rate constants were calculated using the kinetics of competitive binding algorithm in GraphPad Prism[43].

GLP-1R [3] = target: T1, GLP-1R; experiment: Agonist-induced GLP-1R internalization (cell surface receptor loss), post-stimulation Lumi4-Tb surface labeling, CHO-SNAP-GLP-1R cells; assay type: cell-based; conditions: ± 3 μM BETP, 30 min, 100 nM exendin-4, n=4
Procedure: (§1) GLP-1R internalization and recycling in CHO-SNAP-GLP-1R cells was measured by surface labeling with anti-GLP-1R antibody or the SNAP-tag probe Lumi4-Tb (Cisbio). […] Residual surface expression was determined from peptide- vs. control-treated wells.

GLP-1R [4] = target: T1, GLP-1R; experiment: β-arrestin-2 recruitment, PathHunter CHO-GLP-1R cells; assay type: cell-based; design: host or cells: PathHunter CHO-K1 reporter cells (purchased cell lines); conditions: ± 3 μM BETP, n=3
Source text: A full GLP-1 dose response was included to establish the assay Emax.

INS-1 832/3 cells = experiment: Insulin secretion in INS-1 832/3 beta cells; assay type: cell-based, rat; conditions: INS-1 832/3, 16 h
Procedure: Cells were pre-incubated overnight in 3 mM glucose medium.
For human islets, acute incubations were performed in KHB buffer at the indicated concentration of glucose ± agonist[28]. Overnight incubations were performed in complete RPMI plus 11 mM glucose ± 100 nM agonist. Samples were obtained for secreted and, where indicated, total insulin, and analyzed by HTRF (Cisbio). Percentage of release was calculated, and agonist-stimulated results expressed relative to 11 mM glucose alone as insulin stimulation index.

SNAP-GLP-1R [5] = target: T2, SNAP-GLP-1R; experiment: GLP-1R recycling, plate reader surface labeling, CHO-SNAP-GLP-1R cells; assay type: cell-based
Procedure: as §1

T1 sequence (P43220 24-463): as above

Compound	effect on exendin-4 cAMP response (GLP-1R [1])	effect on exendin-4 association rate (SNAP-GLP-1R [2]; ± 10 μM BETP, n=4)	effect on exendin-4 residence time (SNAP-GLP-1R [2]; ± 10 μM BETP, n=4)	effect on exendin-4-induced internalization (GLP-1R [3])	effect on exendin-4 β-arrestin-2 recruitment response (GLP-1R [4])	effect on exendin-4-induced prolonged insulin secretion (INS-1 832/3 cells; ± 3 µM BETP, n=5)	effect on GLP-1R recycling after exendin-4 exposure (SNAP-GLP-1R [5]; ± 3 μM BETP, 60 min recycling, 100 nM exendin-4, n=4)	agonist residence time (comparison in words) (SNAP-GLP-1R [2]; CHO-SNAP-GLP-1R, normalized to exendin-4-FITC response per assay, n=5)	prolonged insulin secretion, comparison with licensed GLP-1R agonists (INS-1 832/3 cells; 100 nM, tested in parallel, n=6)	GLP-1R recycling (comparison in words) (SNAP-GLP-1R [5]; 100 nM, 60 min, with 10 μM exendin(9-39), n=5)
CC[S+]([O-])c1nc(-c2cccc(OCc3ccccc3)c2)cc(C(F)(F)F)n1 (stereo not shown) [BETP, 4-(3-(benzyloxy)phenyl)-2-(ethylsulfinyl)-6-(trifluoro-methyl)pyrimidine]	did not affect	without changes	increased	minimal effect	did not affect	reduced	slowed			
Dulaglutide								shorter than other compounds	closest to ex-phe1	modestly increased recycling
